Source: patent US20110097405A1, “ESTRADIOL-CONTAINING DRUG DELIVERY SYSTEM” (Bayer Schering Pharma Aktiengesellschaft, priority 2008, published 2011)

What was measured:
[1] = Clinical study (PK study): relative bioavailability and PK profile of estradiol after wafers vs oral tablet and intranasal spray; format: in vivo, healthy postmenopausal women; details: female, human
Procedure: Finally, it is the present inventors' experience that the serum estradiol values are somewhat dependent on the applied laboratory assay.
The following not-dose-normalised data, where all parameters are expressed in percentage of the respective Aerodiol® values, were obtained:
Estradiol may be determined by two different assays:
The analytes and their deuterated internal standards are extracted from 1.00 ml of human serum using BondElut Certify® solid-phase cartridges. Estradiol and estrone are eluted from the solid phase cartridges with ethyl acetate. The analytes undergo three separate derivatisation steps: (1) reaction with pentafluorobenzoyl chloride, (2) reaction with O-(2,3,4,5,6-pentafluorobenzyl)-hydroxylamine hydrochloride, and (3) reaction with MSTFA. The derivatised analytes are then separated by gas chromatography using a DB-17 fused silica capillary column and detected by tandem mass spectrometry using negative ion chemical ionization. A 1/(concentration)^2 weighted least-squares regression procedure is used to fit a linear function to the calibration data.
A 500 μl sample aliquot is fortified with 25 μl of internal standard working solution. Analytes are isolated through liquid-liquid extraction with 5.0 ml of 10:90 (v/v) ethyl acetate/hexane. The solvent is evaporated under a stream of nitrogen at 40-50° C. and the remaining residue is derivatizsd. The derivatised analytes are extracted into 3.0 m of 10:90 (v/v) ethyl acetate/hexane, the solvent is evaporated, and the remaining residue is reconstituted with 150 μl acetonitrile and 200 μl water. The final extract is analyzed via high-performance liquid chromatography with tandem mass spectrometry detection.

[2] = Kuhnt et al.; cited from earlier work
[3] = intranasal, cited from earlier work

Row | Structure (SMILES) | bioavailability ([1]; in vivo) | bioavailability, usually ([1]; in vivo) | bioavailability after oral administration [2] | time until pre-treatment level is reached ([3]; after administration) | time to maximum plasma levels [3] [min] | Cmax ([1]; serum, 90 ug) [ng/mL]
1 | CCCCC(=O)O[C@H]1CC[C@H]2[C@@H]3CCc4cc(O)ccc4[C@H]3CC[C@]12C [estradiol valerate] | 30-60% | 30-50% |  |  |  | 
2 | C[C@]12CC[C@@H]3c4ccc(O)cc4CC[C@H]3[C@@H]1CC[C@@H]2O [estradiol] |  |  | about 5% | about 12 hours | 10 to 30 | 0.5 to 0.8
